Assay results as given in PMC9875641, “Ophthalmic Solution of Smart Supramolecular Peptides to Capture Semaphorin 4D against Diabetic Retinopathy” (Advanced Science, 2022).
Where a SMILES comes first, the peptide text is derived from it.

Molecular target: T1, sSema 4D (Homo sapiens, UniProt Q92854)
T1 construct: purchased Novoprotein Ltd. (Suzhou, China)
T1 sequence (Q92854 22-734 limits assumed): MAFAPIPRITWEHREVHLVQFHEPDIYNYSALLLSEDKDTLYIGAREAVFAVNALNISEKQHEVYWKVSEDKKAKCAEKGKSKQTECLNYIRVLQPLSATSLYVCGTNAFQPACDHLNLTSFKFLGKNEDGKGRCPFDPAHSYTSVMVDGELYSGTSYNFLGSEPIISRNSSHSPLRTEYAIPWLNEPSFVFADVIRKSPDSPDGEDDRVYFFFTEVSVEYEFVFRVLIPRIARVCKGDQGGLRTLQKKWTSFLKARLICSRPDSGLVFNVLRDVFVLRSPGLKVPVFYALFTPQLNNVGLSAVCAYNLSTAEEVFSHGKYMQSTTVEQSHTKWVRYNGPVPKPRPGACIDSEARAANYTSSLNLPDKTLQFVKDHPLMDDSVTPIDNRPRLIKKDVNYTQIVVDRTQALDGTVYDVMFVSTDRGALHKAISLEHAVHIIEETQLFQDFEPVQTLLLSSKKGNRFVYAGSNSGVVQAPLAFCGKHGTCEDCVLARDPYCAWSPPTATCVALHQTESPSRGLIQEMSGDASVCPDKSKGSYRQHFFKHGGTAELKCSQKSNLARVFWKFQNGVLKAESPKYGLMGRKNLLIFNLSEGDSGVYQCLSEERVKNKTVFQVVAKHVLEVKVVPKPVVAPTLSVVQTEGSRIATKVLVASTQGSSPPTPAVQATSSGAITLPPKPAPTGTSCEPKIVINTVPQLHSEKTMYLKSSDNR
Experiment: SPRi binding affinity of TPs to sSema 4D
Conditions: SPRi (surface plasmon resonance imaging)
Experimental: To carry out the library screening, we first labeled the sSema4D with fluorescein isothiocyanate isomer (FITC), as shown in Figure 2E. Next, ≈10^6 beads library was incubated with FITC‐labeled sSema4D for 6 hours. The beads were thoroughly washed with DMF, water and methanol. Finally, under the fluorescence microscope, the beads with […] to sSema4D or FITC‐labeled sSema4D through noncovalent bonding were identified in Figure 2F. We selected twelve strongest putative fluorescent beads by physical separation. Subsequently, the corresponding peptides were cleaved off with BrCN from beads and analyzed by automatic Edman sequencing. The structures and sequence of transformable peptides (TPs) were determined and summarized (Figure S2, Supporting Information). TP‐1 to TP‐12 were resynthesized into solid phase and purified by high performance liquid chromatography (HPLC). The binding affinity of TPs toward sSema 4D was measured by enzyme‐linked immunosorbent assay (ELISA) and surface plasmon resonance imaging (SPRi). […] TP‐2 and TP‐7 were selected as the candidate TP binding sSema 4D to construct SSP. Subsequent SSP monomers (SSP‐1, sequence: C16‐FFVLK‐KQKRPRH; SSP‐2 C16‐FFVLK‐KNKAAKG) were synthesized and characterized by HPLC and Matrix‐assisted laser desorption/ionization time‐of‐flight mass spectrometry (MALDI‐TOF‐MS).

## C[C@H](NC(=O)[C@H](C)NC(=O)[C@H](CCCCN)NC(=O)[C@H](CC(N)=O)NC(=O)[C@@H](N)CCCCN)C(=O)N[C@@H](CCCCN)C(=O)NCC(=O)O [TP-2] (H-KNKAAKG-OH)
  Kd: 41.7 nM

## N=C(N)NCCC[C@H](NC(=O)[C@@H]1CCCN1C(=O)[C@H](CCCNC(=N)N)NC(=O)[C@H](CCCCN)NC(=O)[C@H](CCC(N)=O)NC(=O)[C@@H](N)CCCCN)C(=O)N[C@@H](Cc1c[nH]cn1)C(=O)O [TP-7] (H-KQKRPRH-OH)
  Kd: 14.6 nM

## CC(C)[C@H](NC(=O)[C@H](CCCNC(=N)N)NC(=O)[C@H](C)NC(=O)[C@@H]1CCCN1C(=O)[C@H](C)NC(=O)[C@@H](N)CCCCN)C(=O)NCC(=O)O [TP-10] (H-KAPARVG-OH)
  Kd: 64 nM
